Results published in US20260199367A1, “PLK1 DEGRADATION INDUCING COMPOUNDS WITH INCREASED RIGIDITY” (UPPTHERA, INC., priority 2022, published 2026).

What was measured:
Assay type in all cases: cell-based
[1] = target: T1, PLK1 (Homo sapiens, UniProt P53350); experiment: Luciferase assay for PLK1 in HeLa LgBit (PLK1-HiBit KI) cell line; settings: released after thymidine block, compound 300 nM, luminescence after 9 hours
T1 construct: endogenous in cells; host or cells: HeLa LgBit (PLK1-HiBit KI): HeLa cells stably expressing LgBit, with CRISPR/Cas9 knock-in of HiBit at the endogenous PLK1 locus
Protocol: A HeLa cell line in which the LgBit vector was transfected and expressed stably was prepared. Then, after constructing gRNA and donor to express the HiBit amino acid sequence behind the C-terminal of the PLK1 gene, which was inherent in the cell, it was inserted into the cell together with a vector capable of expressing CRISPR/Cas9. Only the cells in which the insertion was completed and knock-in had progressed were selected, sub-cultured and used.
The compounds of Examples were completely dissolved in DMSO (Sigma-Aldrich Cat. No. D2438, Lot. No. RNBL5438) and used in the experiment.
In the case of HeLa LgBit (Plk1-HiBit KI), the compounds were treated after being released after thymidine block, and the process was as follows. Thymidine (Sigma-Aldrich Cat. No. T9250-5G) was completely dissolved in ddH2O and used in the experiment. For thymidine block, the products were treated with 2 mM of thymidine and then incubated for 24 hours. For release and chemical treatment, the medium was suctioned and washed with 1×PBS. TrypLE™ was added and incubated in 37° C. CO2 incubator (Thermo Fisher Science, Cat. No. 4111) for 5 mins. Cells neutralized by adding complete media were counted through a counter. For each well of a 96-well culture plate (SPL), 3.3×10^4 cells and a total medium volume of 150 μl were seeded and incubated in a CO2 incubator.
Each cell line was incubated in a CO2 incubator for 18 hours, and Endurazine (Promega, Cat. No. N257B) was added to each well to make up 4% of the total volume. After adding compounds of Examples in a 96-well white plate (SPL) to a concentration of 300 nM, the wavelength of the plate reader (BMG Labtech, CLARIOstar Plus) was set to 470-480 nM, and then the luminescence was tracked in real time.

[2] = tested on: NCI-H69 (H69) cell line; experiment: Cell viability assay for NCI-H69 cell line; settings: Homo sapiens, NCI-H69, 120 h, 5 days, EZ-Cytox, 0.46-3000 nM
Description: (§1) The NCI-H69 (hereafter H69) and NCI-H526 (hereafter H526) cell lines were purchased from Korea Cell Line Bank (KCLB, Seoul, Korea). For cell culture, RPMI 1640 (Gibco, Cat. No. 22400-089; Lot. No. 2537146), FBS (Gibco, Cat. No. 16000-044; Lot. No. 2511328P), Penicillin/Streptomycin (PS) (Gibco, Cat. No. 15140-122; Lot. No. 2441887), 75T cell culture flask (SPL, Cat. No. 71075), 175T cell culture flask (SPL, Cat. No. 71175), 96-well cell culture plate (SPL, Cat. No. 30096), PBS pH 7.4 (Gibco, Cat. No. 10010-023; Lot. No. 2509235), TrypLE™ Express (Gibco, Cat. No. 12605-010; Lot. No. 2323417), Cell Counter (Hematocytometer)(As one, Cat. No. 4-458-01), and 0.4% Trypan Blue Solution (DYNEBIO, Cat. No. CBT3710; Lot. No. 20221111) were used.
(§2) The compounds of Examples were completely dissolved in DMSO (Sigma-Aldrich Cat. No. D2438, Lot. No. RNBL7287) and used in the experiment. 3×10^4 cells were seeded for each well of a 96-well plate (SPL), and the cells were cultured in total volume of 150 μl. Each compound was diluted 3-folds from the highest concentration of 3000 nM to the lowest concentration of 0.46 nM. After treating the compound to each well to make the total volume of 200 μl, it was cultured in a CO2 incubator (Thermo Fisher Science, Cat. No. 4111) for 5 days. Then, after treating EZ-Cytox (DOGEN, Cat.NO. EZ-3000, Lot. No. DLS2308) 20 μl in each well, it was cultured in CO2 incubator for 4 hours. The absorbance of the completely cultured sample was measured by setting the wavelength of a plate reader (BMG Labtech, CLARIOstar Plus) to […], and was measured after shaking for 3 minutes in a plate reader before measurement.
(§3) (A: IC50 is less than 20 nM, B: IC50 is 50 nM or less, C: IC50 is 100 nM or less)

[3] = tested on: NCI-H526 (H526) cell line; experiment: Cell viability assay for NCI-H526 cell line; settings: Homo sapiens, NCI-H526, 120 h, 5 days, EZ-Cytox, 0.46-3000 nM
Description: as §1, §2, §3

T1 sequence (P53350 whole entry): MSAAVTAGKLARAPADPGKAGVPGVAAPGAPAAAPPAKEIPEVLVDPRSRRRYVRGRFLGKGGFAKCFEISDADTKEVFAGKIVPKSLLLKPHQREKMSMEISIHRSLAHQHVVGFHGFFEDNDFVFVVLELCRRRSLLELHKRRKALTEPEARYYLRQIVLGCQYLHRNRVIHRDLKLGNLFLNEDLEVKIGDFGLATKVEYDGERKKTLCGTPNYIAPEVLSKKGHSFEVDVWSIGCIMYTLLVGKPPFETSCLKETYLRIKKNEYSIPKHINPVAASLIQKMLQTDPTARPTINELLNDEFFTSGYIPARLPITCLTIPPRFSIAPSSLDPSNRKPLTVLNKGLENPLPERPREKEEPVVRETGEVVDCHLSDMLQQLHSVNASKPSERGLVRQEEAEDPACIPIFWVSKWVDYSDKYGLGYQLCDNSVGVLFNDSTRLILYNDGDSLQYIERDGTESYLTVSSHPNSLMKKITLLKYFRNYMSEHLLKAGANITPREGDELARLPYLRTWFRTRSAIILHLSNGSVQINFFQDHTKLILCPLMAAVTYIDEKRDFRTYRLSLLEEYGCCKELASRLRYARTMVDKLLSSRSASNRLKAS

| Value (luminescence value, PLK1-HiBit) [1] | Compound | IC50 [2] | IC50 [3] |
| --- | --- | --- | --- |
| 0.132 | CC[C@@H]1C(=O)N(C)c2cnc(Nc3ccc(C(=O)NN4CCC(C(N)CN5CCN(c6ccc(C7CCC(=O)NC7=O)cc6F)CC5)CC4)cc3OC)nc2N1C1CCCC1 (stereo partly drawn) [Compound 19, N-(4-(1-amino-2-(4-(4-(2,6-dioxopiperidin-3-yl)-2-fluorophenyl)piperazin-1-yl)ethyl)piperidin-1-yl)-4-(((R)-8-cyclopentyl-7-ethyl-5-methyl-6-oxo-5,6,7,8-tetrahydropteridin-2-yl)amino)-3-methoxybenzamide] | ≤ 50 nM | ≤ 50 nM |
| 0.154 | CC[C@@H]1C(=O)N(C)c2cnc(Nc3ccc(C(=O)NC4CCC(N5CCN(CCc6ccc(C7CCC(=O)NC7=O)cc6)CC5)CC4)cc3OC)nc2N1C1CCCC1 (stereo partly drawn) [Compound 20, 4-(((R)-8-cyclopentyl-7-ethyl-5-methyl-6-oxo-5,6,7,8-tetrahydropteridin-2-yl)amino)-N-((1r,4R)-4-(4-(4-(2,6-dioxopiperidin-3-yl)phenethyl)piperazin-1-yl)cyclohexyl)-3-methoxybenzamide] | < 20 nM | < 20 nM |
| 0.144 | CC[C@@H]1C(=O)N(C)c2cnc(Nc3ccc(C(=O)NN4CCC(N5CCC(CNc6ccc(C7CCC(=O)NC7=O)cc6)CC5)CC4)cc3OC)nc2N1C1CCCC1 (stereo partly drawn) [Compound 21, 4-(((R)-8-cyclopentyl-7-ethyl-5-methyl-6-oxo-5,6,7,8-tetrahydropteridin-2-yl)amino)-N-(4-(((4-(2,6-dioxopiperidin-3-yl)phenyl)amino)methyl)-[1,4′-bipiperidin]-1′-yl)-3-methoxybenzamide] | < 20 nM | < 20 nM |
| 0.145 | CC[C@@H]1C(=O)N(C)c2cnc(Nc3ccc(C(=O)NC4CCN(C5CCN(CCc6ccc(C7CCC(=O)NC7=O)cc6)CC5)CC4)cc3OC)nc2N1C1CCCC1 (stereo partly drawn) [Compound 22, 4-(((R)-8-cyclopentyl-7-ethyl-5-methyl-6-oxo-5,6,7,8-tetrahydropteridin-2-yl)amino)-N-(1′-(4-(2,6-dioxopiperidin-3-yl)phenethyl)-[1,4′-bipiperidin]-4-yl)-3-methoxy benzamide] | ≤ 50 nM | < 20 nM |
| 0.186 | CC[C@@H]1C(=O)N(C)c2cnc(Nc3ccc(C(=O)NN4CCC(C5CCN(CCc6ccc(C7CCC(=O)NC7=O)cc6)CC5)CC4)cc3OC)nc2N1C1CCCC1 (stereo partly drawn) [Compound 23, 4-(((R)-8-cyclopentyl-7-ethyl-5-methyl-6-oxo-5,6,7,8-tetrahydropteridin-2-yl)amino)-N-(1′-(4-(2,6-dioxopiperidin-3-yl)phenethyl)-[4,4′-bipiperidin]-1-yl)-3-methoxy benzamide] | < 20 nM | < 20 nM |
| 0.206 | CC[C@@H]1C(=O)N(C)c2cnc(Nc3ccc(C(=O)NC4CCN(C(=O)CCN5CCN(c6ccc(NC7CCC(=O)NC7=O)cc6)CC5)CC4)cc3OC)nc2N1C1CCCC1 (stereo partly drawn) [Compound 24, 4-(((R)-8-cyclopentyl-7-ethyl-5-methyl-6-oxo-5,6,7,8-tetrahydropteridin-2-yl)amino)-N-(1-(3-(4-(4-((2,6-dioxopiperidin-3-yl)amino)phenyl)piperazin-1-yl)propanoyl)piperidin-4-yl)-3-methoxybenzamide] | < 20 nM | < 20 nM |
| 0.144 | CC[C@@H]1C(=O)N(C)c2cnc(Nc3ccc(C(=O)N[C@H]4CC[C@H](NCC5CCN(c6ccc(C7CCC(=O)NC7=O)nc6)CC5)CC4)cc3OC)nc2N1C1CCCC1 (stereo partly drawn) [Compound 25, 4-(((R)-8-cyclopentyl-7-ethyl-5-methyl-6-oxo-5,6,7,8-tetrahydropteridin-2-yl)amino)-N-((1r,4R)-4-(((1-(6-(2,6-dioxopiperidin-3-yl)pyridin-3-yl)piperidin-4-yl)methyl)amino)cyclohexyl)-3-methoxybenzamide] | < 20 nM | < 20 nM |
| 0.269 | COc1cc(C(=O)NC2CCN(C(=O)CCN3CCN(c4ccc(NC5CCC(=O)NC5=O)cc4F)CC3)CC2)ccc1Nc1ncc2c(n1)N(C1CCCC1)CC(F)(F)C(=O)N2C (stereo not drawn) [Compound 26, 4-((9-cyclopentyl-7,7-difluoro-5-methyl-6-oxo-6,7,8,9-tetrahydro-5H-pyrimido[4,5-b][1,4]diazepin-2-yl)amino)-N-(1-(3-(4-(4-((2,6-dioxopiperidin-3-yl)amino)-2-fluorophenyl)piperazin-1-yl)propanoyl)piperidin-4-yl)-3-methoxybenzamide] | ≤ 50 nM | < 20 nM |
| 0.295 | COc1cc(C(=O)NCC2CCN(CC3CCN(c4ccc(C5CCC(=O)NC5=O)cc4)CC3)CC2)ccc1Nc1ncc2c(n1)N(C1CCCC1)CC(F)(F)C(=O)N2C (stereo not drawn) [Compound 27, 4-((9-cyclopentyl-7,7-difluoro-5-methyl-6-oxo-6,7,8,9-tetrahydro-5H-pyrimido[4,5-b][1,4]diazepin-2-yl)amino)-N-((1-((1-(4-(2,6-dioxopiperidin-3-yl)phenyl)piperidin-4-yl)methyl)piperidin-4-yl)methyl)-3-methoxybenzamide] | ≤ 50 nM | ≤ 50 nM |
| 0.259 | COc1cc(C(=O)NCC2CCN(CC3CCN(c4ccc(NC5CCC(=O)NC5=O)cc4)CC3)CC2)ccc1Nc1ncc2c(n1)N(C1CCCC1)CC(F)(F)C(=O)N2C (stereo not drawn) [Compound 28, 4-((9-cyclopentyl-7,7-difluoro-5-methyl-6-oxo-6,7,8,9-tetrahydro-5H-pyrimido[4,5-b][1,4]diazepin-2-yl)amino)-N-((1-((1-(4-((2,6-dioxopiperidin-3-yl)amino)phenyl)piperidin-4-yl)methyl)piperidin-4-yl)methyl)-3-methoxybenzamide] | ≤ 100 nM | ≤ 50 nM |
| 0.267 | COc1cc(C(=O)NC2CCN(C(=O)CCN3CCN(c4ccc(NC5CCC(=O)NC5=O)cc4)CC3)CC2)ccc1Nc1ncc2c(n1)N(C1CCCC1)CC1(CC1)C(=O)N2C (stereo not drawn) [Compound 29, 4-((9′-cyclopentyl-5′-methyl-6′-oxo-5′,6′,8′,9′-tetrahydrospiro[cyclopropane-1,7′-pyrimido[4,5-b][1,4]diazepin]-2′-yl)amino)-N-(1-(3-(4-(4-((2,6-dioxopiperidin-3-yl)amino)phenyl)piperazin-1-yl)propanoyl)piperidin-4-yl)-3-methoxybenzamide] | ≤ 100 nM | ≤ 50 nM |
| 0.250 | COc1cc(C(=O)NC2CCC(NCC3CCN(c4ccc(C5CCC(=O)NC5=O)cc4F)CC3)CC2)ccc1Nc1ncc2c(n1)N(C1CCCC1)CC(F)(F)C(=O)N2C (stereo not drawn) [Compound 30, 4-((9-cyclopentyl-7,7-difluoro-5-methyl-6-oxo-6,7,8,9-tetrahydro-5H-pyrimido[4,5-b][1,4]diazepin-2-yl)amino)-N-((1r,4r)-4-(((1-(4-(2,6-dioxopiperidin-3-yl)-2-fluorophenyl)piperidin-4-yl)methyl)amino)cyclohexyl)-3-methoxybenzamide] | ≤ 50 nM | ≤ 50 nM |
